The results in this text go back to patent US20240308985A1 (Psy Therapeutics, Inc., priority 2021, published 2024).

Read-outs that look alike come from different tables or passages of the source.

Assay type in all cases: biochemical
The target in assay [1] is Monoacylglycerol Lipase (MAGL) (Homo sapiens (Human), UniProt Q99685). In words: MAGL inhibition potency (IC50) assay with 4NPA substrate.
The target in a further assay is MAGL enzyme (Homo sapiens (Human), UniProt Q99685). In words: MAGL reversible inhibition assay (washout). Particulars: for A: degree to which MAGL enzymatic activity returned following washout of test compounds: pre-washout compound concentration 1 μM; for B: % MAGL activity returning after washout: relative to control (no inhibitor before washout), immediately following a 30 minute washout. Also on record: B: % MAGL activity returning after washout: concentration or dose not given beside the values. The protocol:
The reversible mechanism of MAGL inhibition of a test compound of Formula (I) can be determined. Flag-tagged MAGL enzyme will be immobilized on anti-Flag beads. Immobilized enzyme will be incubated +/− inhibitor at a dose that produces complete inhibition. Colorimetric substrate (4-NPA) will be added and the reaction monitored on a plate reader for 30 minutes to verify complete inhibition. Immobilized enzyme will then be washed thoroughly to remove the inhibitor, and fresh substrate will be added. The reaction will be monitored for an additional 30 minutes; returning enzymatic activity will indicate reversibility of inhibition.
MAGL enzyme was incubated for 30 minutes in the presence of 40× the IC50 concentration of inhibitor. Enzyme+inhibitor mix was then diluted 40-fold so that the final concentration of the inhibitor equaled the IC50 concentration. Substrate was added and the reaction was monitored for 30 minutes.

The target of a further assay is human recombinant FAAH (Homo sapiens (Human), UniProt O00519). The assay can be described thus: FAAH inhibition potency counter screen (IC50). The protocol: Comparative compound potency at FAAH can be obtained with the following assay.
MAGL inhibitor compounds were also counter-screened for FAAH inhibition potency using the following assay. Assessment of FAAH inhibition was performed using Fatty Acid Amide Hydrolase Inhibitor Screening Assay Kit (Cayman Item No. 10005196) following manufacture's instruction with some modifications. The kit utilizes human recombinant FAAH and the fluorescent substrate, AMC Arachidonoyl amide (AAMCA). 5 μL of assay buffer (125 mM Tris, pH 9.0, 1 mM EDTA, i.e. ethylenediaminetetraacetic acid) was added to a 384-well black plate (Corning, 3573). Test compounds and control inhibitor JZL-195 (Cayman Chemical, 13668) were tested in 10-concentration IC50 mode with 3-fold serial dilution at a starting concentration of 100 μM and 10 μM, respectively. 300 nL or 30 nL of test compounds were delivered into a 384-well black plate (Corning, 3573) using a Labcyte Echo, followed by addition of 15 μL of FAAH enzyme (Cayman, 700302) in assay buffer. After a 5-minute pre-incubation at room temperature, 10 μL of AAMCA was added in assay buffer to start the reaction. Final concentration of FAAH enzyme is not specified and AAMCA substrate was used at the 20 uM. After these dilutions, the final concentration of the test compounds ranged from 100 μM to 5.08 nM or 10 μM down to 0.508 nM. The reaction was allowed to progress for 60 minutes, while the plate was read on an Envision plate reader at an Ex/Em of 350/460 nm with readings every minute. The data was analyzed in Microsoft Excel, using the slope between 30 and 59 minutes. The average of the no-enzyme wells (background) was subtracted from the data. The background-subtracted slope data was converted to % activity using the average of wells with enzyme and DMSO vehicle. IC50 values were calculated using GraphPad software (Sigmoidal dose response, variable slope equation).
Compounds listed in Table D2 were tested in the FAAH Counterscreen of Example 23
On the technique in general: A counterscreen serves to expose hits that act by an unwanted route or on another target.

Setting [2] is: Method 12: Reaction Biology MAGL enzyme, 15 nM, read-out: MAGL Potency (Detection Method).
The mark [3] stands for this setting: Method 2: Cayman Chemical MAGL enzyme, 10 nM, read-out: MAGL Potency (Detection Method).
Setting [4] is: Method A: starting concentration of 100 μM.
The mark [5] stands for this setting: Method B: starting concentration of 10 μM.
The mark [6] stands for this setting: Methods 1, 2, read-out: MAGL Potency (Detection Method).
Setting [7] is: Method 2: Cayman Chemical MAGL enzyme, 10 nM, read-out: Potency (MAGL inhibition).

Monoacylglycerol Lipase (MAGL), sequence (Q99685 2-303): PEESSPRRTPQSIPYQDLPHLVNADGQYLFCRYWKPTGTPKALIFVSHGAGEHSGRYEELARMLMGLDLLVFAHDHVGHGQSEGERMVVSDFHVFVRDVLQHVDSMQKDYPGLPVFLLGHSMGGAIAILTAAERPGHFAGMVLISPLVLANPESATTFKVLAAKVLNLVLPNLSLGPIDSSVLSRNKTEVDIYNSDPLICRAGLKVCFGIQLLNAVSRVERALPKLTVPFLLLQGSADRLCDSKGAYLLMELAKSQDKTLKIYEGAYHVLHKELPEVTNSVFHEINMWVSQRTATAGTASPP
human recombinant FAAH, sequence (O00519 whole entry): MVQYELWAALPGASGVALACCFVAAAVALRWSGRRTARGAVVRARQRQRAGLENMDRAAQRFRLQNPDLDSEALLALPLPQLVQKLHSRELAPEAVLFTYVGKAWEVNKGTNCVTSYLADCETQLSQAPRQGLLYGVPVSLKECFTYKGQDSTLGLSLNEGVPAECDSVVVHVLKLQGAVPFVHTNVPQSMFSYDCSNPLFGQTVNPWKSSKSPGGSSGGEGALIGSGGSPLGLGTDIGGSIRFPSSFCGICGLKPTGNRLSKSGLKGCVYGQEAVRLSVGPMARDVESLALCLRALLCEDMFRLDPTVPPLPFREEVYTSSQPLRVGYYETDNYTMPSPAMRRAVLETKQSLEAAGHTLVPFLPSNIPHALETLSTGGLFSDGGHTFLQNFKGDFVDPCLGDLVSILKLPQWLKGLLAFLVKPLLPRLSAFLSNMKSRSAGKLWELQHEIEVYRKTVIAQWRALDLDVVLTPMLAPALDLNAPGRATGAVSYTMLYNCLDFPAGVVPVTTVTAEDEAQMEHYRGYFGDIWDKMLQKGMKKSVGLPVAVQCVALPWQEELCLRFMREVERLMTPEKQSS
MAGL enzyme, sequence (Q99685 whole entry): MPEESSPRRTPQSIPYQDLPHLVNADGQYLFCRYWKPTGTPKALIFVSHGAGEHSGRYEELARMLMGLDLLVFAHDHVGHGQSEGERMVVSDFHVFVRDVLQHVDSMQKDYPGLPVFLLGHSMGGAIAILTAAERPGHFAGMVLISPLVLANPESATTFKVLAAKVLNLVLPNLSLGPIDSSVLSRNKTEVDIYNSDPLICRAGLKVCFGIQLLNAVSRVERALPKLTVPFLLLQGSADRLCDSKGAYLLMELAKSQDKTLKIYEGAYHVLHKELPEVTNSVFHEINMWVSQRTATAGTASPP

As to `Cc1cn(C2CC3(C2)CN(C(=O)c2cc(O)ccc2F)C3)nc1-c1cc(F)ccc1Cl` [Compound 520, {6-[3-(2-chloro-5-fluorophenyl)-4-methyl-1-pyrazolyl]-2-aza-2-spiro[3.3]heptyl}(2-fluoro-5-hydroxyphenyl)methanone], the IC50 in assay [1] (setting [2]) was below 50 nM. Further, on MAGL enzyme, the “A: degree to which MAGL enzymatic activity returned following washout of test compounds” value (“A: degree” for short) came out at 100 and the “B: % MAGL activity returning after washout” value (“B: % MAGL activity returning” below) was above 50%.

On to `Cc1cnn(C2CC3(C2)CN(C(=O)c2cc(O)ccc2F)C3)c1-c1cc(F)ccc1Cl` (single isomer, unassigned) [Compound 519, (6-(5-(2-chloro-5-fluorophenyl)-4-methyl-1H-pyrazol-1-yl)-2-azaspiro [3.3]heptan-2-yl) (2-fluoro-5-hydroxyphenyl) methanone], for which the IC50 in assay [1] (setting [2]) is 50 to 150 nM. Further, on MAGL enzyme, the “A: degree” value amounted to 155 and the “B: % MAGL activity returning” value is above 50%.

As for `Cc1cc(C2CC3(C2)CN(C(=O)c2ccccc2F)C3)n(-c2ccccc2C)n1` [Compound 122, (2-fluorophenyl)(6-(3-methyl-1-(o-tolyl)-1H-pyrazol-5-yl)-2-azaspiro[3.3]heptan-2-yl)methanone], the IC50 in assay [1] (setting [3]) is 1000 to 5100 nM; at human recombinant FAAH (setting [4]) it was above 10000 nM.

As for `O=C(c1cc(O)ccc1F)N1CC2(CC(n3cc(C4CC4)c(-c4ccccc4F)n3)C2)C1` [Compound 493, {6-[4-cyclopropyl-3-(o-fluorophenyl)-1-pyrazolyl]-2-aza-2-spiro[3.3]heptyl}(2-fluoro-5-hydroxyphenyl)methanone], in assay [1] (setting [2]), the IC50 is below 50 nM. Also, at human recombinant FAAH (setting [5]), the IC50 is above 10000 nM. Also, at MAGL enzyme, the “A: degree” value came to 47 and the “B: % MAGL activity returning” value was below 50%.

As to `Cc1cc(C2CC3(C2)CN(C(=O)c2c(F)ccc(O)c2F)C3)n(-c2ccccc2C)n1` [Compound 127, (2,6-difluoro-3-hydroxyphenyl)(6-(3-methyl-1-(o-tolyl)-1H-pyrazol-5-yl)-2-azaspiro[3.3]heptan-2-yl)methanone], the values for the IC50 (in assay [1] (setting [3]); at human recombinant FAAH (setting [4])) were 1000 to 5100 nM and above 10000 nM, respectively.

Consider `Cc1ccccc1-n1nc(C2CC3(C2)CN(C(=O)c2cc(O)ccc2F)C3)cc1C` [Compound 117], for which, at human recombinant FAAH (setting [4]), the IC50 is above 10000 nM.

For `O=C(c1cc(O)ccc1F)N1CC2(CC(n3cc(C(F)(F)F)c(-c4ccccc4F)n3)C2)C1` [Compound 473, (2-fluoro-5-hydroxyphenyl){6-[3-(o-fluorophenyl)-4-(trifluoromethyl)-1-pyrazolyl]-2-aza-2-spiro[3.3]heptyl}methanone], the IC50 in assay [1] (setting [2]) was below 50 nM. Also, the IC50 at human recombinant FAAH (setting [5]) was above 10000 nM. Besides, on MAGL enzyme, the “A: degree” value came out at 41 and the “B: % MAGL activity returning” value is given as below 50%.

For `Cc1cc(C2CC3(C2)CN(C(=O)c2cccc(O)c2)C3)n(-c2ccccc2C)n1` [Compound 125, (3-hydroxyphenyl)(6-(3-methyl-1-(o-tolyl)-1H-pyrazol-5-yl)-2-azaspiro[3.3]heptan-2-yl)methanone], the IC50 is 50 to 150 nM in assay [1] (setting [6]) and above 10000 nM at human recombinant FAAH (setting [4]).

As to `O=C(Oc1ccc([N+](=O)[O-])cc1)N1CCC(C(O)(c2ccc3c(c2)OCO3)c2ccc3c(c2)OCO3)CC1` [JZL-184, reference compound], on MAGL enzyme, the “A: degree” value was “complete lack of return of MAGL enzymatic activity after washout” and the “B: % MAGL activity returning” value is recorded as below 1%.

Consider `COc1ccc(F)c(C(=O)N2CC3(CC(c4cc(C)nn4-c4ccccc4C)C3)C2)c1` [Compound 123], for which the IC50 (in assay [1] (setting [7]); on human recombinant FAAH (setting [4])) was above 10000 nM each time.

Take `O=C(c1cc(O)ccc1F)N1CC2(CC(n3nc(C(F)(F)F)cc3-c3ccccc3C(F)(F)F)C2)C1` [Compound 487, (2-fluoro-5-hydroxyphenyl)(6-{3-(trifluoromethyl)-5-[o-(trifluoromethyl)phenyl]-1-pyrazolyl}-2-aza-2-spiro[3.3]heptyl)methanone]: the IC50 in assay [1] (Method 13: Reaction Biology MAGL enzyme, 12 nM, read-out: MAGL Potency (Detection Method)) was in the range of 150 to 500 nM.

`Cc1cc(C2CC3(C2)CN(C(=O)c2cc(O)ccc2C#N)C3)n(-c2ccccc2C)n1` [Compound 128, 4-hydroxy-2-({6-[3-methyl-1-(o-tolyl)-5-pyrazolyl]-2-aza-2-spiro[3.3]heptyl}carbonyl)benzonitrile]: the IC50 in assay [1] (setting [6]) is below 50 nM.

On to `Cc1cc(C2=CC3(C2)CN(C(=O)c2cc(O)ccc2F)C3)n(-c2ccccc2C)n1` [Compound 120, (2-fluoro-5-hydroxyphenyl)(6-(3-methyl-1-(o-tolyl)-1H-pyrazol-5-yl)-2-azaspiro[3.3]hept-5-en-2-yl)methanone], for which, in assay [1] (setting [3]), the IC50 lay within 150 to 500 nM.

In the case of `O=C(c1cc(O)ccc1F)N1CC2(CC(c3nccn3-c3ccccc3)C2)C1` [Compound 401, (2-fluoro-5-hydroxyphenyl){6-(1-phenyl-2-imidazolyl)-2-aza-2-spiro[3.3]heptyl}methanone], the IC50 in assay [1] (Method 14: Reaction Biology MAGL enzyme, 6 nM, read-out: MAGL Potency (Detection Method)) was 500 to 1000 nM.

`Cc1cnn(C2CC3(C2)CN(C(=O)c2cc(O)ccc2C(F)(F)F)C3)c1-c1ccccc1F` [Compound 494]: the IC50 in assay [1] (Method 12: Reaction Biology MAGL enzyme, 15 nM, read-out: Potency (MAGL inhibition)) was above 10000 nM.

For `Cc1cc(C2CC3(C2)CN(C(=O)c2cccn2C)C3)n(-c2ccccc2C)n1` [Compound 181], the IC50 in assay [1] (setting [7]) was above 10000 nM.

In the case of `O=C(c1cc(O)ccc1F)N1CC2(CC(n3cc(C4CC4)c(-c4ccccc4C(F)(F)F)n3)C2)C1` [Compound 488, (6-{4-cyclopropyl-3-[o-(trifluoromethyl)phenyl]-1-pyrazolyl}-2-aza-2-spiro[3.3]heptyl)(2-fluoro-5-hydroxyphenyl)methanone], the IC50 in assay [1] (setting [2]) was below 50 nM.

Turning to `Cc1cn(C2CC3(C2)CN(C(=O)c2cc(O)ccc2F)C3)nc1-c1ccccc1Cl` [Compound 416], the IC50 in assay [1] (Method 6: Reaction Biology MAGL enzyme, 6 nM, read-out: Potency (MAGL inhibition)) is above 10000 nM.

Consider `CCOc1cc(F)ccc1C(=O)N1CC2(CC(c3cc(C)nn3-c3ccccc3C)C2)C1` [Compound 146, (2-ethoxy-4-fluorophenyl){6-[3-methyl-1-(o-tolyl)-5-pyrazolyl]-2-aza-2-spiro[3.3]heptyl}methanone], for which the IC50 in assay [1] (setting [3]) is 150 to 500 nM; in assay [1] (Method 3: Reaction Biology MAGL enzyme, 10 nM, read-out: MAGL Potency (Detection Method)), below 50 nM.
